IC50 data for eight compounds are collected here from ChEMBL document CHEMBL1127934, “Synthesis of a series of brominated 1-phenyl-2-pyridylethenes as inhibitors of the protein-tyrosine kinase p56lck” (Bioorg Med Chem Lett, 1994).

The target of experiment [1] is Tyrosine-protein kinase Lck (Homo sapiens, UniProt P06239). Put plainly: Inhibition of p56 Lck tyrosine kinase.
A short description of experiment [2]: Inhibition of p56 Lck tyrosine kinase.

Sequence of Tyrosine-protein kinase Lck (P06239 whole entry): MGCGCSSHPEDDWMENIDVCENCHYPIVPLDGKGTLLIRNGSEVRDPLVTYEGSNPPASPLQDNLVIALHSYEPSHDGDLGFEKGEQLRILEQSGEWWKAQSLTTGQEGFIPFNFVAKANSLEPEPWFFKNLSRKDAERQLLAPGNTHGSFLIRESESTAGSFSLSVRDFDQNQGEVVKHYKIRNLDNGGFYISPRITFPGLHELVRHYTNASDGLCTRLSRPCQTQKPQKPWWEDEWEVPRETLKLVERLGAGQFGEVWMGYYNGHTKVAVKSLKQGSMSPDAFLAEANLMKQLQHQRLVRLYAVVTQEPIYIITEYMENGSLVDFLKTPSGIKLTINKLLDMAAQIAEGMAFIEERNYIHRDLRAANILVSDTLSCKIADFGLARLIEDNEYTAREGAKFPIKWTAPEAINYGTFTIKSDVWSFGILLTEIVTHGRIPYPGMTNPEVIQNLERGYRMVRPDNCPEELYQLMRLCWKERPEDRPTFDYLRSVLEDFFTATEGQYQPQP

As a reminder, the IC50 is the concentration at which inhibition is half-maximal. Higher therefore signals lower potency. In turn, `COc1c(Br)cc(/C=C(\C#N)c2cccnc2)cc1Br` showed an IC50 in experiment [1] greater than 2530 µM.

Turning to `COc1cc(/C=C/c2ccccn2)cc(OC)c1OC`, 2180 µM corresponded to half-maximal inhibition in experiment [2] (IC50).

With `N#C/C(=C\c1cc(Br)c(O)c(Br)c1)c1ccccn1`, the half-maximal inhibitory concentration (IC50) in experiment [1] was 105 µM.

Turning to `COc1c(Br)cc(/C=C(\C#N)c2ccccn2)cc1Br`, the IC50 in experiment [1] was greater than 2530 µM.

As to `N#C/C(=C\c1cc(Br)c(O)c(Br)c1)c1cccnc1`, the half-inhibitory concentration (IC50) in experiment [1] turned out to be 168 µM.

As for `COc1cc(/C=C/c2cccnc2)cc(OC)c1OC`, in experiment [2], the IC50 was 516 µM.

In experiment [1], `N#CC(Cc1cc(Br)c(O)c(Br)c1)c1ccccn1` (stereo not drawn) registered an IC50 greater than 2090 µM.

Compound `COc1cc(/C=C(\C#N)c2cccnc2)cc(Br)c1O` registered a 50% inhibitory concentration (IC50) in experiment [1] of 242 µM.
